Test results: patent US10597388B2, “Pyridazinone herbicides” (FMC CORPORATION, priority 2014, dated 2020)

Assays:
Test in all cases: Test C greenhouse herbicide test, pre- and postemergence
Assay type in all cases: in vivo
[1] = system: johnsongrass (Sorghum halepense)
In short: (§1)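 Each species was treated both before emergence, in a loam–sand soil mix, and after emergence, as 1- to 4-leaf seedlings in peat-based potting medium. Plants stayed in the greenhouse 13 to 15 d, then were scored from 0 (no effect) to 100 (complete control) relative to controls.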

[2] = system: velvetleaf (Abutilon theophrasti)
In short: as §1

[3] = system: blackgrass (Alopecurus myosuroides)
In short: as §1

[4] = system: wheat (winter wheat, Triticum aestivum)
In short: as §1

[5] = system: nutsedge, yellow (yellow nutsedge, Cyperus esculentus)
In short: as §1

[6] = system: crabgrass, large (large crabgrass, Digitaria sanguinalis)
In short: as §1

[7] = system: corn (Zea mays)
In short: as §1

[8] = system: galium (catchweed bedstraw, Galium aparine)
In short: as §1

[9] = system: ryegrass, Italian (Italian ryegrass, Lolium multiflorum)
In short: as §1

[10] = system: barnyardgrass (Echinochloa crus-galli)
In short: as §1

[11] = system: foxtail, giant (giant foxtail, Setaria faberii)
In short: as §1

[12] = system: soybean (Glycine max)
In short: as §1

[13] = Postemergence, 31 g ai/ha, scale 0 to 100 (0 no effect, 100 complete control)
[14] = Postemergence, 62 g ai/ha, 0 to 100 scale (0 no effect, 100 complete control)
[15] = Postemergence, 250 g ai/ha, scale 0 to 100, 0 no effect, 100 complete control, 13 to 15 d
[16] = Preemergence, 31 g ai/ha, scale 0 to 100, 0 is no effect, 100 is complete control
[17] = Preemergence, 62 g ai/ha, scale 0 to 100, 0 is no effect, 100 is complete control
[18] = Preemergence, 125 g ai/ha, scale 0 to 100, 0 is no effect, 100 is complete control
[19] = Preemergence, 250 g ai/ha, scale 0 to 100, 0 no effect, 100 complete control
[20] = postemergence, 125 g ai/ha, scale 0 to 100, 0 no effect, 100 complete control

CC(=O)Oc1c(C)nn(C)c(=O)c1-c1c(C)sc2ccc(C(F)(F)F)cc12 [Compound 132] was tested, and the “Plant response rating, Johnsongrass” value [1, 13] was 0, the “Johnsongrass plant response rating” value [1, 14] was 5 and the “Plant response rating, Johnsongrass” value [1, 15] was 10. The “Plant response rating, Johnsongrass” value [1, 16] was 15, the “Plant response rating, Johnsongrass” value [1, 17] was 10 and the “Plant response rating, Johnsongrass” value [1, 18] was 55. The “Johnsongrass plant response rating” value [1, 19] was 25, the “Johnsongrass plant response rating” value [1, 20] was 5 and the “Plant response rating, Velvetleaf” value [2, 13] was 30. The “Velvetleaf plant response rating” value [2, 14] was 40, the “Plant response rating, Velvetleaf” value [2, 15] was 75 and the “Plant response rating, Velvetleaf” value [2, 16] was 60. The “Plant response rating, Velvetleaf” value [2, 17] was 60, the “Plant response rating, Velvetleaf” value [2, 18] was 90 and the “Velvetleaf plant response rating” value [2, 19] was 95. The “Velvetleaf plant response rating” value [2, 20] was 65, the “Plant response rating, Blackgrass” value [3, 13] was 5 and the “Blackgrass plant response rating” value [3, 14] was 5. For the same compound, the “Plant response rating, Blackgrass” value [3, 15] was 45, the “Plant response rating, Blackgrass” value [3, 16] was 20 and the “Plant response rating, Blackgrass” value [3, 17] was 45. For the same compound, the “Plant response rating, Blackgrass” value [3, 18] was 40, the “Blackgrass plant response rating” value [3, 19] was 50 and the “Blackgrass plant response rating” value [3, 20] was 25. For the same compound, the “Plant response rating, Wheat” value [4, 13] was 0, the “Wheat plant response rating” value [4, 14] was 0 and the “Plant response rating, Wheat” value [4, 15] was 0. The “Plant response rating, Wheat” value [4, 16] was 25, the “Plant response rating, Wheat” value [4, 17] was 40 and the “Plant response rating, Wheat” value [4, 18] was 20. For the same compound, the “Wheat plant response rating” value [4, 19] was 50, the “Wheat plant response rating” value [4, 20] was 0 and the “Plant response rating, Nutsedge, Yellow” value [5, 13] was 30. For the same compound, the “Nutsedge, Yellow plant response rating” value [5, 14] was 55, the “Plant response rating, Nutsedge, Yellow” value [5, 15] was 85 and the “Plant response rating, Nutsedge, Yellow” value [5, 16] was 10. For the same compound, the “Plant response rating, Nutsedge, Yellow” value [5, 17] was 35, the “Plant response rating, Nutsedge, Yellow” value [5, 18] was 45 and the “Nutsedge, Yellow plant response rating” value [5, 19] was 75. The “Nutsedge, Yellow plant response rating” value [5, 20] was 75, the “Plant response rating, Crabgrass, Large” value [6, 13] was 15 and the “Crabgrass, Large plant response rating” value [6, 14] was 15. For the same compound, the “Plant response rating, Crabgrass, Large” value [6, 15] was 25, the “Plant response rating, Crabgrass, Large” value [6, 16] was 0 and the “Plant response rating, Crabgrass, Large” value [6, 17] was 0. The “Plant response rating, Crabgrass, Large” value [6, 18] was 10, the “Crabgrass, Large plant response rating” value [6, 19] was 40 and the “Crabgrass, Large plant response rating” value [6, 20] was 10. For the same compound, the “Plant response rating, Corn” value [7, 13] was 0, the “Corn plant response rating” value [7, 14] was 5 and the “Plant response rating, Corn” value [7, 15] was 10. The “Plant response rating, Corn” value [7, 16] was 0, the “Plant response rating, Corn” value [7, 17] was 0 and the “Plant response rating, Corn” value [7, 18] was 0. The “Corn plant response rating” value [7, 19] was 10, the “Corn plant response rating” value [7, 20] was 5 and the “Plant response rating, Galium” value [8, 13] was 90. For the same compound, the “Galium plant response rating” value [8, 14] was 95, the “Plant response rating, Galium” value [8, 15] was 95 and the “Plant response rating, Galium” value [8, 16] was 90. The “Plant response rating, Galium” value [8, 17] was 90, the “Plant response rating, Galium” value [8, 18] was 90 and the “Galium plant response rating” value [8, 19] was 98. The “Galium plant response rating” value [8, 20] was 95, the “Plant response rating, Ryegrass, Italian” value [9, 13] was 80 and the “Ryegrass, Italian plant response rating” value [9, 14] was 85. The “Plant response rating, Ryegrass, Italian” value [9, 15] was 95, the “Plant response rating, Ryegrass, Italian” value [9, 16] was 45 and the “Plant response rating, Ryegrass, Italian” value [9, 17] was 90. The “Plant response rating, Ryegrass, Italian” value [9, 18] was 95, the “Ryegrass, Italian plant response rating” value [9, 19] was 95 and the “Ryegrass, Italian plant response rating” value [9, 20] was 95. The “Plant response rating, Barnyardgrass” value [10, 13] was 15, the “Barnyardgrass plant response rating” value [10, 14] was 30 and the “Plant response rating, Barnyardgrass” value ([10]; Postemergence, 125 g ai/ha, scale 0 to 100, 0 is no effect, 100 is complete control) was 25. The “Plant response rating, Barnyardgrass” value [10, 15] was 25, the “Plant response rating, Barnyardgrass” value [10, 16] was 0 and the “Plant response rating, Barnyardgrass” value [10, 17] was 5. For the same compound, the “Plant response rating, Barnyardgrass” value [10, 18] was 35, the “Barnyardgrass plant response rating” value [10, 19] was 45 and the “Plant response rating, Foxtail, Giant” value [11, 13] was 30. For the same compound, the “Foxtail, Giant plant response rating” value [11, 14] was 40, the “Plant response rating, Foxtail, Giant” value [11, 15] was 75 and the “Plant response rating, Foxtail, Giant” value [11, 16] was 40. For the same compound, the “Plant response rating, Foxtail, Giant” value [11, 17] was 70, the “Plant response rating, Foxtail, Giant” value [11, 18] was 85 and the “Foxtail, Giant plant response rating” value [11, 19] was 98. For the same compound, the “Foxtail, Giant plant response rating” value [11, 20] was 60, the “Plant response rating, Soybean” value [12, 13] was 0 and the “Soybean plant response rating” value [12, 14] was 0. For the same compound, the “Plant response rating, Soybean” value [12, 15] was 20, the “Plant response rating, Soybean” value [12, 16] was 0 and the “Plant response rating, Soybean” value [12, 17] was 0. The “Plant response rating, Soybean” value [12, 18] was 0, the “Soybean plant response rating” value [12, 19] was 0 and the “Soybean plant response rating” value [12, 20] was 0.
